These results are taken from PubChem BioAssay (NCI).

Each structure is given as a SMILES string.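 Growth conditions: 96-well plates. Treatment: test compound, 48 hours, 5 concentrations. Analysis: linear interpolation between bracketing concentrations; unreached endpoints set to highest concentration. TGI is the concentration that stops growth completely.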

Test systems include 786-0 renal; A498 renal; ACHN renal; BT-549 breast; CAKI-1 renal; COLO 205 colon; HCT-15 colon; HOP-62 NSCLC; HOP-92 NSCLC; KM12 colon; NCI-H460 lung; SF-539 CNS; SR leukemia; SW-620 colon; T-47D breast; TK-10 renal; U251 CNS; NCI-H23 lung; HL-60(TB) leukemia.
Common to all, as to assay: NCI-60 cell line screen, 48 h

With `COc1ccc(NC/C=C/C(=C/COC(C)=O)OC(C)=O)cc1`, the TGI was found to be 2.44 µM in the assay on 786-0 renal; 3.53 µM in the assay on A498 renal; 3.29 µM in the assay on ACHN renal; 3.16 µM in the assay on BT-549 breast; 4.18 µM with CAKI-1 renal; 3.4 µM in the assay on COLO 205 colon. Besides, the TGI with HCT-15 colon is 5.1 µM; with HOP-62 NSCLC, 5.18 µM; in the assay with HOP-92 NSCLC, 3.87 µM; in the assay on KM12 colon, 1.99 µM; with NCI-H460 lung, 4.8 µM; in the assay on SF-539 CNS, 3.8 µM. The TGI was 2.71 µM in the assay on SR leukemia; 3.49 µM in the assay on SW-620 colon; 5.45 µM in the assay on T-47D breast; 3.74 µM in the assay on TK-10 renal; 4.53 µM with U251 CNS.

Turning to `O=[N+]([O-])C(=C/c1cccc2ccccc12)/C(=C\c1cccc2ccccc12)[N+](=O)[O-]`, the TGI in the assay with 786-0 renal is 3.72 µM; with A498 renal, 33.5 µM; in the assay with ACHN renal, 4.21 µM; in the assay with BT-549 breast, 4.26 µM; in the assay with CAKI-1 renal, 4.68 µM; with COLO 205 colon, over 21.7 µM. For the same molecule, the TGI in the assay with HCT-15 colon is 3.95 µM; in the assay on HOP-62 NSCLC it was 7.03 µM; with HOP-92 NSCLC, 4.25 µM; in the assay on KM12 colon, 16 µM; in the assay on NCI-H23 lung it was 4.36 µM; with NCI-H460 lung it was 7.92 µM. For the same molecule, the TGI with SF-539 CNS turned out to be 5.63 µM; in the assay on SR leukemia, 9.03 µM; with SW-620 colon, 4.5 µM; in the assay on T-47D breast it was 10.6 µM; with TK-10 renal it was 4.65 µM; with U251 CNS, 4.32 µM.

For the molecule `CC(C)CCC[C@@H](C)[C@H]1CC[C@H]2C3=C[C@H](OS(=O)(=O)O)[C@@]4(O)C[C@@H](O)CC[C@]4(C)[C@@]3(O)CC[C@]12C`, the TGI in the assay with 786-0 renal, in the assay with A498 renal, with ACHN renal, in the assay on BT-549 breast, in the assay on CAKI-1 renal and in the assay on COLO 205 colon was over 100 µM each time. The TGI with HCT-15 colon, with HOP-62 NSCLC, in the assay on HOP-92 NSCLC, in the assay with KM12 colon, in the assay on NCI-H23 lung and in the assay on NCI-H460 lung was over 100 µM throughout. The TGI in the assay on SF-539 CNS, in the assay on SR leukemia, in the assay on SW-620 colon, in the assay with T-47D breast, with TK-10 renal and in the assay on U251 CNS was over 100 µM each time.

For the molecule `C=C[C@]1(O[Si](C)(C)C)C[C@@]2(C(=O)OCC)C(O)C(=O)N3CCc4cc(OC)c(OC)cc4[C@]312` (stereo partly specified), the TGI in the assay with 786-0 renal, in the assay with A498 renal, in the assay on ACHN renal, in the assay with BT-549 breast, in the assay on CAKI-1 renal and in the assay on COLO 205 colon was over 100 µM each time. Besides, the TGI in the assay on HCT-15 colon, in the assay on HOP-62 NSCLC, with HOP-92 NSCLC, in the assay on KM12 colon, in the assay with NCI-H23 lung and in the assay on NCI-H460 lung was over 100 µM throughout. Also, the TGI in the assay on SF-539 CNS, in the assay with SR leukemia, with SW-620 colon, in the assay on T-47D breast, in the assay with TK-10 renal and in the assay on U251 CNS was over 100 µM in each case.

For `BrCc1ccc(CBr)c2c1-c1c(CBr)ccc3ccc(CBr)c-2c13`, the TGI in the assay on 786-0 renal, with A498 renal, in the assay with ACHN renal, in the assay on BT-549 breast, in the assay on HCT-15 colon and with HL-60(TB) leukemia was over 100 µM throughout. The TGI with HOP-62 NSCLC, with HOP-92 NSCLC, in the assay with KM12 colon, in the assay with NCI-H460 lung, in the assay with SF-539 CNS and in the assay with SR leukemia was over 100 µM each time. For the same molecule, the TGI in the assay on SW-620 colon, in the assay with T-47D breast, in the assay on TK-10 renal and in the assay with U251 CNS was over 100 µM throughout.

`COc1ccc(NC(=O)C(=O)Cc2nc3ccc(C(=O)c4ccccc4)cc3[nH]c2=O)c([N+](=O)[O-])c1`: the TGI in the assay on 786-0 renal was over 100 µM; with A498 renal, 54.8 µM; in the assay on ACHN renal it was over 100 µM; with BT-549 breast it was over 100 µM; in the assay on CAKI-1 renal it was over 100 µM; with COLO 205 colon, 40 µM. Moreover, the TGI with HCT-15 colon was over 100 µM; with HOP-62 NSCLC it was over 100 µM; with HOP-92 NSCLC, 74.4 µM; with KM12 colon, 64 µM; in the assay with NCI-H23 lung, 65.4 µM; with NCI-H460 lung, over 100 µM. Also, the TGI in the assay on SF-539 CNS is over 100 µM; in the assay with SR leukemia, 51.1 µM; in the assay on SW-620 colon it was 79.8 µM; with T-47D breast it was 68.9 µM; in the assay with TK-10 renal, over 100 µM; in the assay on U251 CNS, over 100 µM.

Take `CCN1C[C@]2(C)CC[C@H](OC)C34C5C[C@@H]6[C@@H](OC)C[C@@](OC)(C5[C@H]6OCc5ccccc5)C(C13)[C@H](OC(C)=O)[C@@H]42` (stereo partly specified): the TGI in the assay on 786-0 renal, with A498 renal, in the assay with ACHN renal, in the assay on BT-549 breast, in the assay on COLO 205 colon and in the assay on HCT-15 colon was over 100 µM in each case. The TGI in the assay with HL-60(TB) leukemia, in the assay with HOP-62 NSCLC, in the assay with HOP-92 NSCLC, in the assay on KM12 colon, with NCI-H23 lung and in the assay with NCI-H460 lung was over 100 µM throughout. The TGI in the assay on SF-539 CNS, with SR leukemia, in the assay on SW-620 colon, in the assay with T-47D breast, in the assay with TK-10 renal and in the assay with U251 CNS was over 100 µM each time.

For `c1cncc(CSc2ncnc3nc[nH]c23)c1`, the TGI in the assay on 786-0 renal, with A498 renal, with ACHN renal, with BT-549 breast, in the assay on CAKI-1 renal and in the assay with COLO 205 colon was over 100 µM in each case. Moreover, the TGI with HCT-15 colon, with HL-60(TB) leukemia, in the assay on HOP-62 NSCLC, with HOP-92 NSCLC, with KM12 colon and in the assay with NCI-H23 lung was over 100 µM throughout. The TGI in the assay on NCI-H460 lung, in the assay with SR leukemia, in the assay with SW-620 colon, in the assay with T-47D breast, with TK-10 renal and in the assay with U251 CNS was over 100 µM in each case.

For `O=C(O)CC12CC3CC(CC(O)(C3)C1)C2`, the TGI with 786-0 renal, with A498 renal, in the assay on ACHN renal, with BT-549 breast, in the assay with CAKI-1 renal and with COLO 205 colon was over 100 µM throughout. In addition, the TGI in the assay on HCT-15 colon, in the assay with HOP-62 NSCLC, in the assay on HOP-92 NSCLC, with KM12 colon, with NCI-H23 lung and in the assay with NCI-H460 lung was over 100 µM in each case. Moreover, the TGI in the assay with SF-539 CNS, in the assay on SR leukemia, in the assay on SW-620 colon, in the assay on T-47D breast, in the assay on TK-10 renal and with U251 CNS was over 100 µM each time.

For the molecule `c1ccc2c(-c3csc(-c4c[nH]c5ccccc45)n3)c[nH]c2c1`, the TGI with 786-0 renal, in the assay with A498 renal, in the assay with ACHN renal, in the assay on BT-549 breast, in the assay on CAKI-1 renal and in the assay with HCT-15 colon was over 100 µM each time. Moreover, the TGI is 47.6 µM in the assay on HL-60(TB) leukemia; over 100 µM with HOP-62 NSCLC; over 100 µM with HOP-92 NSCLC; over 100 µM with KM12 colon; over 100 µM in the assay with NCI-H23 lung; over 100 µM in the assay on NCI-H460 lung. Also, the TGI was over 100 µM in the assay with SF-539 CNS; over 74.6 µM in the assay on SR leukemia; over 100 µM with SW-620 colon; over 100 µM in the assay on T-47D breast; over 100 µM with TK-10 renal; over 100 µM in the assay with U251 CNS.

With `c1n[nH]cc1C12C3C4C5C3C1C5C42` (stereo unspecified), the TGI with 786-0 renal, in the assay with A498 renal, in the assay on ACHN renal, with BT-549 breast, in the assay on CAKI-1 renal and with COLO 205 colon was over 100 µM throughout. For the same molecule, the TGI with HCT-15 colon, in the assay on HL-60(TB) leukemia, in the assay on HOP-62 NSCLC, in the assay with HOP-92 NSCLC, in the assay with KM12 colon and in the assay with NCI-H23 lung was over 100 µM in each case. Moreover, the TGI with SF-539 CNS, in the assay with SR leukemia, in the assay with SW-620 colon, in the assay on T-47D breast, with TK-10 renal and in the assay with U251 CNS was over 100 µM throughout.

In the case of `CCCC(=O)OCOC(=O)N(C)N=Nc1ccc(C(=O)OCC)cc1`, the TGI with 786-0 renal was 59.8 µM; in the assay with A498 renal, over 100 µM; in the assay on ACHN renal, 56.7 µM; in the assay on BT-549 breast, 76.9 µM; in the assay with CAKI-1 renal, over 100 µM; with COLO 205 colon it was 51.5 µM. Further, the TGI with HCT-15 colon is 75.4 µM; in the assay on HOP-62 NSCLC, over 100 µM; in the assay on HOP-92 NSCLC, 63.7 µM; with KM12 colon, over 100 µM; in the assay with NCI-H23 lung, 66.4 µM; in the assay with NCI-H460 lung, 71.8 µM. In addition, the TGI with SR leukemia is over 100 µM; in the assay with SW-620 colon, 66.3 µM; in the assay on T-47D breast, over 100 µM; with TK-10 renal it was over 100 µM; in the assay with U251 CNS it was 84.1 µM.

Regarding `FC(F)(F)c1cccnc1Sc1nc2ccccc2s1`, the TGI in the assay with 786-0 renal, in the assay on A498 renal, with ACHN renal, with BT-549 breast, in the assay on CAKI-1 renal and in the assay on COLO 205 colon was over 100 µM in each case. Moreover, the TGI in the assay on HCT-15 colon, with HOP-62 NSCLC, with HOP-92 NSCLC, with KM12 colon, with NCI-H23 lung and in the assay with NCI-H460 lung was over 100 µM in each case. The TGI with SF-539 CNS, with SR leukemia, in the assay with SW-620 colon, with T-47D breast, with TK-10 renal and in the assay with U251 CNS was over 100 µM in each case.

On to `O=c1[nH]c(=O)n(C2C(CO)OC(CO)C2O)cc1F` (stereo unspecified), for which the TGI in the assay with 786-0 renal, with A498 renal, with ACHN renal, in the assay on BT-549 breast, in the assay on CAKI-1 renal and in the assay with COLO 205 colon was over 100 µM in each case. Further, the TGI in the assay on HCT-15 colon, with HOP-62 NSCLC, with HOP-92 NSCLC, in the assay with KM12 colon, with NCI-H23 lung and in the assay with NCI-H460 lung was over 100 µM each time. Besides, the TGI in the assay with SF-539 CNS, in the assay with SR leukemia, with SW-620 colon, in the assay on T-47D breast, with TK-10 renal and in the assay with U251 CNS was over 100 µM throughout.

As to `C/C(=N\NC(=S)Nc1ccc([N+](=O)[O-])cc1)c1nc2ncccc2[nH]1`, the TGI in the assay on 786-0 renal was 11.6 µM; in the assay on A498 renal, 8.76 µM; with BT-549 breast, 2.35 µM; in the assay on CAKI-1 renal, over 100 µM; in the assay with COLO 205 colon it was 23.1 µM; in the assay with HCT-15 colon, 9.04 µM. For the same molecule, the TGI was over 100 µM with HL-60(TB) leukemia; 4.33 µM in the assay with HOP-62 NSCLC; 18 µM with HOP-92 NSCLC; over 100 µM in the assay with KM12 colon; 4.14 µM in the assay with NCI-H23 lung; 3.31 µM in the assay with NCI-H460 lung. Further, the TGI with SF-539 CNS is 1.37 µM; in the assay with SR leukemia, over 100 µM; with SW-620 colon, over 100 µM; in the assay on T-47D breast it was 22.9 µM; in the assay with TK-10 renal, 4.56 µM; in the assay on U251 CNS, 1.84 µM.
